# Measured values as given in PubChem BioAssay (NCI).
#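 Compound exposure: 48 hours, 5 concentrations, 96-well plates. GI50 marks 50% less growth. TGI is the concentration that stops growth completely.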
# Assays:
# Assay in all cases: inhibition of tumour cell growth, NCI panel, 48 h
# NCI-H460 lung = tested on: NCI-H460 lung
# T-47D breast = tested on: T-47D breast
# SF-539 CNS = tested on: SF-539 CNS
# OVCAR-3 ovarian = tested on: OVCAR-3 ovarian
# MOLT-4 leukemia = tested on: MOLT-4 leukemia
# SF-268 CNS = tested on: SF-268 CNS
# HOP-92 NSCLC = tested on: HOP-92 NSCLC
# UO-31 renal = tested on: UO-31 renal
# A498 renal = tested on: A498 renal
# UACC-62 melanoma = tested on: UACC-62 melanoma
# HCT-15 colon = tested on: HCT-15 colon
# PC-3 prostate = tested on: PC-3 prostate
# OVCAR-8 ovarian = tested on: OVCAR-8 ovarian
# HS 578T breast = tested on: HS 578T breast
# ACHN renal = tested on: ACHN renal
# OVCAR-4 ovarian = tested on: OVCAR-4 ovarian
# MDA-MB-231 breast = tested on: MDA-MB-231 breast
# U251 CNS = tested on: U251 CNS
# SNB-19 CNS = tested on: SNB-19 CNS
# NCI-H226 lung = tested on: NCI-H226 lung
# K-562 leukemia = tested on: K-562 leukemia
# SN12C renal = tested on: SN12C renal
# COLO 205 colon = tested on: COLO 205 colon
# NCI-H23 lung = tested on: NCI-H23 lung
# SNB-75 CNS = tested on: SNB-75 CNS
# KM12 colon = tested on: KM12 colon
# RPMI-8226 leukemia = tested on: RPMI-8226 leukemia
# UACC-257 melanoma = tested on: UACC-257 melanoma
# IGROV1 ovarian = tested on: IGROV1 ovarian
# SK-OV-3 ovarian = tested on: SK-OV-3 ovarian
# HCC-2998 colon = tested on: HCC-2998 colon
# SF-295 CNS = tested on: SF-295 CNS
# MCF7 breast = tested on: MCF7 breast
# EKVX NSCLC = tested on: EKVX NSCLC
# TK-10 renal = tested on: TK-10 renal
# BT-549 breast = tested on: BT-549 breast
# LOX IMVI melanoma = tested on: LOX IMVI melanoma
# HOP-62 NSCLC = tested on: HOP-62 NSCLC
# OVCAR-5 ovarian = tested on: OVCAR-5 ovarian
# A549 NSCLC = tested on: A549 NSCLC
# SK-MEL-2 melanoma = tested on: SK-MEL-2 melanoma
# SW-620 colon = tested on: SW-620 colon
# NCI-H522 lung = tested on: NCI-H522 lung
# SK-MEL-28 melanoma = tested on: SK-MEL-28 melanoma
# DU-145 prostate = tested on: DU-145 prostate
# CAKI-1 renal = tested on: CAKI-1 renal
# HT29 colon = tested on: HT29 colon
# M14 melanoma = tested on: M14 melanoma
# HCT-116 colon = tested on: HCT-116 colon
# NCI/ADR-RES ovarian = tested on: NCI/ADR-RES ovarian
# MDA-MB-435 = tested on: MDA-MB-435
# SK-MEL-5 melanoma = tested on: SK-MEL-5 melanoma
# CCRF-CEM leukemia = tested on: CCRF-CEM leukemia
# MALME-3M melanoma = tested on: MALME-3M melanoma
compound,measurement,setting,value
O=C1OCC(C#Cc2ccccc2)=C1Cl,GI50,NCI-H460 lung,7.59 µM
same,TGI,NCI-H460 lung,> 100 µM
same,GI50,T-47D breast,12.6 µM
same,TGI,T-47D breast,30.3 µM
same,GI50,SF-539 CNS,2.52 µM
same,TGI,SF-539 CNS,19.5 µM
same,GI50,OVCAR-3 ovarian,1.9 µM
same,TGI,OVCAR-3 ovarian,10.8 µM
same,GI50,MOLT-4 leukemia,14.3 µM
same,TGI,MOLT-4 leukemia,46.1 µM
same,GI50,SF-268 CNS,6.82 µM
same,TGI,SF-268 CNS,72.7 µM
same,GI50,HOP-92 NSCLC,2.14 µM
same,TGI,HOP-92 NSCLC,6.84 µM
same,GI50,UO-31 renal,2.15 µM
same,TGI,UO-31 renal,> 100 µM
same,GI50,A498 renal,12 µM
same,TGI,A498 renal,38 µM
same,GI50,UACC-62 melanoma,6.21 µM
same,TGI,UACC-62 melanoma,18.8 µM
same,GI50,HCT-15 colon,4.36 µM
same,TGI,HCT-15 colon,15.7 µM
same,GI50,PC-3 prostate,1.99 µM
same,TGI,PC-3 prostate,5.67 µM
same,GI50,OVCAR-8 ovarian,3.45 µM
same,TGI,OVCAR-8 ovarian,> 100 µM
same,GI50,HS 578T breast,2.46 µM
same,TGI,HS 578T breast,18 µM
same,GI50,ACHN renal,2.49 µM
same,TGI,ACHN renal,6.56 µM
same,GI50,OVCAR-4 ovarian,15.5 µM
same,TGI,OVCAR-4 ovarian,73.1 µM
same,GI50,MDA-MB-231 breast,1.19 µM
same,TGI,MDA-MB-231 breast,6.39 µM
same,GI50,U251 CNS,1.59 µM
same,TGI,U251 CNS,3.13 µM
same,GI50,SNB-19 CNS,7.49 µM
same,TGI,SNB-19 CNS,67.9 µM
same,GI50,NCI-H226 lung,3.11 µM
same,TGI,NCI-H226 lung,7.13 µM
same,GI50,K-562 leukemia,1.86 µM
same,TGI,K-562 leukemia,14.6 µM
same,GI50,SN12C renal,2.89 µM
same,TGI,SN12C renal,12.3 µM
same,GI50,COLO 205 colon,2.33 µM
same,TGI,COLO 205 colon,7.79 µM
same,GI50,NCI-H23 lung,14 µM
same,TGI,NCI-H23 lung,26.9 µM
same,GI50,SNB-75 CNS,19.8 µM
same,TGI,SNB-75 CNS,46.2 µM
same,GI50,KM12 colon,2.65 µM
same,TGI,KM12 colon,12.1 µM
same,GI50,RPMI-8226 leukemia,1.56 µM
same,TGI,RPMI-8226 leukemia,4.61 µM
same,GI50,UACC-257 melanoma,4.34 µM
same,TGI,UACC-257 melanoma,40.2 µM
same,GI50,IGROV1 ovarian,1.88 µM
same,TGI,IGROV1 ovarian,> 100 µM
same,GI50,SK-OV-3 ovarian,37.7 µM
same,TGI,SK-OV-3 ovarian,> 100 µM
same,GI50,HCC-2998 colon,3.78 µM
same,TGI,HCC-2998 colon,15.2 µM
same,GI50,SF-295 CNS,21.6 µM
same,TGI,SF-295 CNS,> 100 µM
same,GI50,MCF7 breast,1.71 µM
same,TGI,MCF7 breast,> 100 µM
same,GI50,EKVX NSCLC,1.91 µM
same,TGI,EKVX NSCLC,6.17 µM
same,GI50,TK-10 renal,1.61 µM
same,TGI,TK-10 renal,6.38 µM
same,GI50,BT-549 breast,7.87 µM
same,TGI,BT-549 breast,33.4 µM
same,GI50,LOX IMVI melanoma,4.31 µM
same,TGI,LOX IMVI melanoma,14.9 µM
same,GI50,HOP-62 NSCLC,0.388 µM
same,TGI,HOP-62 NSCLC,1.7 µM
same,GI50,OVCAR-5 ovarian,3.59 µM
same,TGI,OVCAR-5 ovarian,15 µM
same,GI50,A549 NSCLC,5.02 µM
same,TGI,A549 NSCLC,> 100 µM
same,GI50,SK-MEL-2 melanoma,8.61 µM
same,TGI,SK-MEL-2 melanoma,40.7 µM
same,GI50,SW-620 colon,0.83 µM
same,TGI,SW-620 colon,5.07 µM
same,GI50,NCI-H522 lung,3.08 µM
same,TGI,NCI-H522 lung,14.7 µM
same,GI50,SK-MEL-28 melanoma,1.7 µM
same,TGI,SK-MEL-28 melanoma,5.16 µM
same,GI50,DU-145 prostate,1.6 µM
same,TGI,DU-145 prostate,11.8 µM
same,GI50,CAKI-1 renal,3.27 µM
same,TGI,CAKI-1 renal,26.7 µM
same,GI50,HT29 colon,1.05 µM
same,TGI,HT29 colon,12.9 µM
same,GI50,M14 melanoma,3.88 µM
same,TGI,M14 melanoma,16.4 µM
same,GI50,HCT-116 colon,0.322 µM
same,TGI,HCT-116 colon,1.38 µM
same,GI50,NCI/ADR-RES ovarian,3.32 µM
same,TGI,NCI/ADR-RES ovarian,13.8 µM
same,GI50,MDA-MB-435,6.92 µM
same,TGI,MDA-MB-435,42.6 µM
same,GI50,SK-MEL-5 melanoma,10 µM
same,TGI,SK-MEL-5 melanoma,23.5 µM
same,GI50,CCRF-CEM leukemia,0.222 µM
same,TGI,CCRF-CEM leukemia,18.1 µM
same,GI50,MALME-3M melanoma,13.4 µM
same,TGI,MALME-3M melanoma,36.5 µM
